Source: ChEMBL document CHEMBL1201862, “PubChem BioAssay data set” (2004)
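Where inhibition never reached the appropriate level, the endpoint shown equals the highest concentration tested. Otherwise, values were interpolated linearly from a five-concentration, 48-hour dose response in 96-well plates. Here, GI50 denotes the concentration required for 50% inhibition of growth.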 Active and inactive are the calls of the source. Rule as the data show it: active = GI50 up to about 1.1 µM and inactive = higher.

Tests used:
Assay in all cases: inhibition of tumour cell growth, NCI panel, 48 h
[1] = test system: NCI-H460
[2] = test system: M19-MEL
[3] = test system: HCT-15
[4] = test system: Malme-3M
[5] = test system: A498
[6] = test system: SK-MEL-5
[7] = test system: UO-31
[8] = test system: DLD-1
[9] = test system: KM-20L2
[10] = test system: SNB-75
[11] = test system: COLO 205
[12] = test system: M14
[13] = test system: CCRF-CEM
[14] = test system: SNB-78

| Structure (SMILES) | GI50 [1] | GI50 [2] | GI50 [3] [µM] | GI50 [4] | GI50 [5] | GI50 [6] | GI50 [7] | GI50 [8] | GI50 [9] | GI50 [10] | GI50 [11] | GI50 [12] | GI50 [13] | GI50 [14] |
| --- | --- | --- | --- | --- | --- | --- | --- | --- | --- | --- | --- | --- | --- | --- |
| CC1(C)CCc2cc3c(cc2O1)OCCC3=O | > 100 µM (inactive) | > 100 µM (inactive) | > 100 | > 100 µM (inactive) | > 100 µM (inactive) | > 100 µM (inactive) | 94.2 µM (inactive) | > 100 µM (inactive) | > 100 µM (inactive) | > 100 µM (inactive) | > 100 µM (inactive) | > 100 µM (inactive) | > 100 µM (inactive) | – |
| CC1CC(=O)C2CC(CO)=CCCC2C1(C)CC/C(=C/CO)CO (configuration not stated) | > 100 µM (inactive) | > 100 µM (inactive) | > 100 | > 100 µM (inactive) | > 100 µM (inactive) | > 100 µM (inactive) | > 100 µM (inactive) | > 100 µM (inactive) | – | > 100 µM (inactive) | > 100 µM (inactive) | > 100 µM (inactive) | > 100 µM (inactive) | > 100 µM (inactive) |
| O=c1c2cccnc2ncn1CCN1CCCC1 | > 100 µM (inactive) | > 100 µM (inactive) | – | > 100 µM (inactive) | – | > 100 µM (inactive) | > 100 µM (inactive) | > 100 µM (inactive) | > 100 µM (inactive) | > 100 µM (inactive) | > 100 µM (inactive) | > 100 µM (inactive) | > 100 µM (inactive) | > 100 µM (inactive) |
| COC(=O)N(C(=O)OC)C(C(=O)O)C(C)C (configuration not stated) | > 100 µM (inactive) | > 100 µM (inactive) | – | – | – | – | > 100 µM (inactive) | > 100 µM (inactive) | > 100 µM (inactive) | > 100 µM (inactive) | > 100 µM (inactive) | > 100 µM (inactive) | – | > 100 µM (inactive) |
| Cc1cccc(NC(=O)/C=C/c2ccc(N(CCC#N)CCC#N)cc2C)c1 | > 100 µM (inactive) | > 100 µM (inactive) | 29 | > 100 µM (inactive) | > 100 µM (inactive) | > 100 µM (inactive) | 24.5 µM (inactive) | > 100 µM (inactive) | > 100 µM (inactive) | 54.5 µM (inactive) | > 100 µM (inactive) | > 100 µM (inactive) | 33 µM (inactive) | – |
| NC(CCc1ncc(C(=O)O)s1)C(=O)O (configuration not stated) | > 100 µM (inactive) | > 100 µM (inactive) | > 100 | > 100 µM (inactive) | > 100 µM (inactive) | > 100 µM (inactive) | > 100 µM (inactive) | > 100 µM (inactive) | – | > 100 µM (inactive) | > 100 µM (inactive) | > 100 µM (inactive) | > 100 µM (inactive) | > 100 µM (inactive) |
| O=C1Nc2ccc(Br)cc2/C1=N/Nc1ccc([N+](=O)[O-])cc1[N+](=O)[O-] | – | 3.54 µM (inactive) | 3.12 | 3.08 µM (inactive) | – | 1.83 µM (inactive) | 2.48 µM (inactive) | 4.58 µM (inactive) | 3.14 µM (inactive) | 4.1 µM (inactive) | 2.47 µM (inactive) | 4.8 µM (inactive) | 3.02 µM (inactive) | 4.51 µM (inactive) |
| O=C(/C(=N/Nc1ccccc1)c1ccc([N+](=O)[O-])cc1)c1ccc([N+](=O)[O-])cc1 | > 100 µM (inactive) | > 100 µM (inactive) | 39 | > 100 µM (inactive) | – | > 100 µM (inactive) | > 100 µM (inactive) | > 100 µM (inactive) | > 100 µM (inactive) | 85.5 µM (inactive) | > 100 µM (inactive) | > 100 µM (inactive) | – | > 100 µM (inactive) |
